# In paper PMC7339578, “Multiple circulating alkaloids and saponins from intravenous Kang-Ai injection inhibit human cytochrome P450 and UDP-glucuronosyltransferase isozymes: potential drug–drug interactions” (Chinese Medicine, 2020):
# Read-outs that look alike come from different tables or passages of the source.
# What was measured:
# Format in all cases: in vitro ADME
# CYP2A6 = target: T1, CYP2A6 (Homo sapiens, UniProt P11509); test: Inhibition of recombinant CYP2A6 (probe coumarin)
# T1 sequence (P11509 1-494): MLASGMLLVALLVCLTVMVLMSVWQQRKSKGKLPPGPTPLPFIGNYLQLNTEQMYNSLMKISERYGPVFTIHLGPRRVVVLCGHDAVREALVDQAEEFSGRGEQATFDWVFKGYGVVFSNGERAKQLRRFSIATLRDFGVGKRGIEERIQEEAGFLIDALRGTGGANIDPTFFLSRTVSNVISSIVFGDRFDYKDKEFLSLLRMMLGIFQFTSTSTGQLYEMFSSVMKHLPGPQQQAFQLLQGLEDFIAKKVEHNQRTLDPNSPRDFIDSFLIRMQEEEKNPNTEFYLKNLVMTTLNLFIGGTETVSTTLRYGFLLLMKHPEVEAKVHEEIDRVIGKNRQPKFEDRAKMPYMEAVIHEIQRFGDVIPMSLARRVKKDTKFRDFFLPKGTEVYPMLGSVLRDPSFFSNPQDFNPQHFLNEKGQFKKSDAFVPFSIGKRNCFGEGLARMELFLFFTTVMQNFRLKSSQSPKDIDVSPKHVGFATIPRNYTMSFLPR
# Protocol: (§1) In this study, phenacetin (100 μM), coumarin (100 μM), bupropion (100 μM), paclitaxel (60 μM), tolbutamide (200 μM), mephenytoin (100 μM), chlorzoxazone (200 μM) and nifedipine (40 μM) have been used as the probe substrates for CYP1A2, 2A6, 2B6, 2C8, 2C9, 2C19, 2E1 and 3A4, respectively.
# CYP2C8 = target: T2, CYP2C8 (Homo sapiens, UniProt P10632); test: Inhibition of recombinant CYP2C8 (probe paclitaxel)
# T2 sequence (P10632 1-490): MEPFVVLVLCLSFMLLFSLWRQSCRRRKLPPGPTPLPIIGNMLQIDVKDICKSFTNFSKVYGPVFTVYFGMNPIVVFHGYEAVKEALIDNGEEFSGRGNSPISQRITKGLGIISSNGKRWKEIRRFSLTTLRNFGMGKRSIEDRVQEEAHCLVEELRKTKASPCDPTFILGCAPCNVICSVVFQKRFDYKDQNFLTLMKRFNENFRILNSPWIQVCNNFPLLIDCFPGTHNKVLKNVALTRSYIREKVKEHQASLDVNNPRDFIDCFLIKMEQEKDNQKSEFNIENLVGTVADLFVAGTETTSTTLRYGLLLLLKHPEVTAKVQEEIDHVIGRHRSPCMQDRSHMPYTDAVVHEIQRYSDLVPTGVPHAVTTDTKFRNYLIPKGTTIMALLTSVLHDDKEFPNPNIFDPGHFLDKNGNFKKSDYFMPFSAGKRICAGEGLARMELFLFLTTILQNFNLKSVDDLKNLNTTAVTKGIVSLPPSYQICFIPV
# Protocol: as §1
# UGT1A9 = target: T3, UGT1A9 (Homo sapiens, UniProt O60656); test: Inhibition of expressed UGT1A9 (probe propofol)
# T3 sequence (O60656 26-530): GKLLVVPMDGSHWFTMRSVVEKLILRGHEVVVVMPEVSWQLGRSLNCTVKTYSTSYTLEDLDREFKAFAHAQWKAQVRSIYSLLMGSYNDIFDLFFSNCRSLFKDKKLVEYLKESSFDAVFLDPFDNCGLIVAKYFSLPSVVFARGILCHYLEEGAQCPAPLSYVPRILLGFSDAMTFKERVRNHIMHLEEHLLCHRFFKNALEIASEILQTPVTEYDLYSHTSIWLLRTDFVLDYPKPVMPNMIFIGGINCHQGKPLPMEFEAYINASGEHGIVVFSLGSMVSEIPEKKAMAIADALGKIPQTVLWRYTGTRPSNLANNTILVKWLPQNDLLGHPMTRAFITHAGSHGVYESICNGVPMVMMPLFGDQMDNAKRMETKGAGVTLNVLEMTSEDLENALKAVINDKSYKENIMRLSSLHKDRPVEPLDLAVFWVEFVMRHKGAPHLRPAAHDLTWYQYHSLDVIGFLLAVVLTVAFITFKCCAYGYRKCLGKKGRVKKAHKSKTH
# Protocol: After centrifugation (13,800g, 10 min), the supernatant (8 μL) was obtained for determination by UHPLC system.
# Similarly, β-estradiol (60 μM), propofol (40 μM) and 4-MU (350 μM) were typically used as the substrates for UGT1A1, 1A9 and 2B7, respectively. After optimization of incubation conditions (Additional file 1: Fig. S2), the protein concentrations for UGT1A1, 1A9, and 2B7 were 0.125, 0.05, and 0.05 mg/mL, respectively.
# [1] = recombinant isozyme, mean ± SD of triplicate, unit not given (IC50 classes in μM), read-out: IC50 towards CYP2A6
# [2] = recombinant isozyme, mean ± SD of triplicate, unit not given (IC50 classes in μM), read-out: IC50 towards CYP2C8
# [3] = recombinant isozyme, mean ± SD of triplicate, unit not given (IC50 classes in μM), read-out: IC50 towards UGT1A9
SMILES,IC50 (CYP2A6; [1]),IC50 (CYP2C8; [2]),IC50 (UGT1A9; [3]),also measured
"O=C1CCC[C@@H]2[C@H]3CCCN4CCC[C@@H](CN12)[C@@H]34 [Compound A1, Matrine]",–,–,–,IC50 (CYP2A6): > 100 µM; IC50 (CYP2C8): > 100 µM; IC50 (UGT1A9): > 100 µM
"O=C1CCC[C@@H]2[C@H]3CCC[N+]4([O-])CCC[C@@H](CN12)[C@@H]34 (some centres unmarked) [Compound A3, Oxymatrine]",–,–,–,"IC50 (CYP2A6): > 100 µM; IC50 (CYP2C8; IC50 towards CYP2C8, recombinant isozyme, mean ± SD of triplicate, unit not given (IC50 classes in μM)): > 100 µM; IC50 (UGT1A9; IC50 towards UGT1A9, recombinant isozyme, mean ± SD of triplicate, unit not given (IC50 classes in μM)): > 100 µM"
"CC(C)(O)[C@@H]1CC[C@](C)([C@H]2[C@@H](O)C[C@@]3(C)[C@@H]4C[C@H](O[C@@H]5O[C@H](CO)[C@@H](O)[C@H](O)[C@H]5O)[C@H]5C(C)(C)[C@@H](O[C@@H]6OC[C@@H](O)[C@H](O)[C@H]6O)CC[C@@]56C[C@@]46CC[C@]23C)O1 [Compound B2, Astragaloside IV]",> 100 µM,> 100 µM,> 100 µM,–
"CC(C)=CCC[C@](C)(O[C@@H]1O[C@H](CO)[C@@H](O)[C@H](O)[C@H]1O)[C@H]1CC[C@]2(C)[C@@H]1[C@H](O)C[C@@H]1[C@@]3(C)CC[C@H](O)C(C)(C)[C@@H]3[C@@H](O[C@@H]3O[C@H](CO)[C@@H](O)[C@H](O)[C@H]3O)C[C@]12C [Compound C6, Ginsenoside Rg1]",> 100 µM,> 100 µM,> 100 µM,–
"CC(C)=CCC[C@](C)(O)[C@H]1CC[C@]2(C)[C@@H]1[C@H](O)C[C@@H]1[C@@]3(C)CC[C@H](O)C(C)(C)[C@@H]3[C@@H](O[C@@H]3O[C@H](CO)[C@@H](O)[C@H](O)[C@H]3O[C@@H]3O[C@H](CO)[C@@H](O)[C@H](O)[C@H]3O)C[C@]12C [Compound C7, Ginsenoside Rf]",> 100 µM,> 100 µM,> 100 µM,–
"CC(C)=CCC[C@](C)(O[C@@H]1O[C@H](CO)[C@@H](O)[C@H](O)[C@H]1O)[C@H]1CC[C@]2(C)[C@@H]1[C@H](O)C[C@@H]1[C@@]3(C)CC[C@H](O)C(C)(C)[C@@H]3[C@@H](O[C@@H]3O[C@H](CO)[C@@H](O)[C@H](O)[C@H]3O[C@@H]3O[C@@H](C)[C@H](O)[C@@H](O)[C@H]3O)C[C@]12C [Compound C9, Ginsenoside Re]",> 100 µM,24 ± 10.7 µM,> 100 µM,"inhibition type (smallest AIC and SC) (CYP2C8; CYP2C8): mixed-type inhibition; Ki (CYP2C8; CYP2C8, competitive model): 8.2 ± 1.1 µM; Ki (CYP2C8; CYP2C8, mixed-type model): 13.3 ± 2.9 µM; α (CYP2C8; CYP2C8, mixed-type model): 4.2 ± 2.3; Ki (CYP2C8; CYP2C8, noncompetitive model): 26.5 ± 2.2 µM; Cmax/Ki ([I]/Ki) (CYP2C8; CYP2C8, selected model, rat plasma Cmax): 0.1; IC50 (CYP2C8; paclitaxel 60 μM, read-out: IC50 towards CYP2C8): 24 µM"
"CC(C)=CCC[C@](C)(O[C@@H]1O[C@H](CO)[C@@H](O)[C@H](O)[C@H]1O)[C@H]1CC[C@]2(C)[C@@H]1[C@H](O)C[C@@H]1[C@@]3(C)CC[C@H](O[C@@H]4O[C@H](CO)[C@@H](O)[C@H](O)[C@H]4O[C@@H]4O[C@H](CO)[C@@H](O)[C@H](O)[C@H]4O)C(C)(C)[C@@H]3CC[C@]12C [Compound D2, Ginsenoside Rd]",> 100 µM,> 100 µM,> 100 µM,–
"CC(C)=CCC[C@](C)(O[C@@H]1O[C@H](CO[C@@H]2O[C@@H](CO)[C@H](O)[C@H]2O)[C@@H](O)[C@H](O)[C@H]1O)[C@H]1CC[C@]2(C)[C@@H]1[C@H](O)C[C@@H]1[C@@]3(C)CC[C@H](O[C@@H]4O[C@H](CO)[C@@H](O)[C@H](O)[C@H]4O[C@@H]4O[C@H](CO)[C@@H](O)[C@H](O)[C@H]4O)C(C)(C)[C@@H]3CC[C@]12C [Compound D3, Ginsenoside Rc]",> 100 µM,> 100 µM,29 ± 12.7 µM,"inhibition type (smallest AIC and SC) (UGT1A9; UGT1A9): Noncompetitive inhibition; Ki (UGT1A9; UGT1A9, competitive model): 8.9 ± 1.5 µM; Ki (UGT1A9; UGT1A9, mixed-type model): 27 ± 7.5 µM; α (UGT1A9; UGT1A9, mixed-type model): 0.7 ± 0.3; Ki (UGT1A9; UGT1A9, noncompetitive model): 22.3 ± 1.4 µM; Cmax/Ki ([I]/Ki) (UGT1A9; UGT1A9, selected model, rat plasma Cmax): 0.04; IC50 (UGT1A9; propofol 40 μM, read-out: IC50 against UGT1A9): 29 µM"
"CC(C)=CCC[C@](C)(O[C@@H]1O[C@H](CO[C@@H]2O[C@H](CO)[C@@H](O)[C@H](O)[C@H]2O)[C@@H](O)[C@H](O)[C@H]1O)[C@H]1CC[C@]2(C)[C@@H]1[C@H](O)C[C@@H]1[C@@]3(C)CC[C@H](O[C@@H]4O[C@H](CO)[C@@H](O)[C@H](O)[C@H]4O[C@@H]4O[C@H](CO)[C@@H](O)[C@H](O)[C@H]4O)C(C)(C)[C@@H]3CC[C@]12C [Compound D5, Ginsenoside Rb1]",> 100 µM,> 100 µM,> 100 µM,–
